Measurements from ChEMBL document CHEMBL1201862, “PubChem BioAssay data set” (2004).
“And” between values parts separate entries of the source, which are not always exact repeats. Equal entries are not always repeated.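 All cell lines were grown in 96-well plates and treated with compound for 48 hours. Here, GI50 denotes the concentration required for 50% inhibition of growth.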 The source made the active and inactive calls. Rule as the data show it: active = GI50 up to about 1.1 µM and inactive = higher.

What was measured:
Assay in all cases: DTP human tumour cell line panel, 48 h
Malme-3M = test system: Malme-3M
CCRF-CEM = test system: CCRF-CEM
HOP-62 = test system: HOP-62
RPMI-8226 = test system: RPMI-8226
EKVX = test system: EKVX
CAKI-1 = test system: CAKI-1
SW-620 = test system: SW-620
HT-29 = test system: HT-29
NCI-H460 = test system: NCI-H460
KM12 = test system: KM12
SF-268 = test system: SF-268
UACC-62 = test system: UACC-62
SK-MEL-5 = test system: SK-MEL-5
SK-MEL-28 = test system: SK-MEL-28
SR = test system: SR
HOP-92 = test system: HOP-92
LOX IMVI = test system: LOX IMVI

Measured: GI50

O/N=C1/C(=C/c2ccc(Cl)cc2)CCCC1C(NO)c1ccc(Cl)cc1 (configuration not stated)
inactive: Malme-3M 26.7 µM | CCRF-CEM 19.1 µM | HOP-62 22.8 µM | RPMI-8226 20.9 µM | EKVX 30.1 µM | CAKI-1 23.7 µM | SW-620 30.2 µM | HT-29 19.2 µM | NCI-H460 17.3 µM | KM12 19.9 µM | SF-268 15.9 µM | UACC-62 29 µM | SK-MEL-5 22.7 µM | SK-MEL-28 5.6 µM

CCN(CC)CCCn1cnc2ncccc2c1=O
inactive: Malme-3M > 100 µM | CCRF-CEM > 100 µM | HOP-62 > 100 µM | SR > 100 µM | EKVX > 100 µM | CAKI-1 > 100 µM | SW-620 > 100 µM | HT-29 > 100 µM | NCI-H460 > 100 µM | KM12 > 100 µM | SF-268 > 100 µM | UACC-62 > 100 µM | SK-MEL-5 > 100 µM | HOP-92 > 100 µM | LOX IMVI > 100 µM | SK-MEL-28 > 100 µM

CC(C)=CCSC1CC2C(CC1(C)O)C2(C)C (configuration not stated)
inactive: Malme-3M 17.3 µM and 16.4 µM | HOP-62 16.4 µM and 16.6 µM | RPMI-8226 17.5 µM and 21.9 µM | EKVX 12.9 µM and 16.1 µM | CAKI-1 14.6 µM and 12.5 µM | SW-620 19.6 µM and 17.1 µM | HT-29 15.7 µM and 14.9 µM | NCI-H460 18.4 µM and 14.2 µM | KM12 19.3 µM and 14.1 µM | SF-268 18.3 µM and 16.3 µM | UACC-62 15.4 µM and 17.5 µM | HOP-92 14.1 µM and 16.6 µM | LOX IMVI 16.2 µM and 15.1 µM | SK-MEL-28 16.8 µM and 17 µM

CN(C)/C(=N/C(=S)Nc1ccccc1)SCc1ccccc1
inactive: Malme-3M 40.2 µM | CCRF-CEM 11.7 µM | HOP-62 71.6 µM | RPMI-8226 10.3 µM | EKVX > 100 µM | CAKI-1 24.2 µM | SW-620 > 100 µM | HT-29 3.88 µM | KM12 7.23 µM | SF-268 48.3 µM | UACC-62 6.17 µM | SK-MEL-5 3.14 µM | LOX IMVI 42 µM | SK-MEL-28 42.2 µM

Nc1c(-c2ccc(Br)cc2)[n+]([O-])c2ccccc2[n+]1[O-]
inactive: Malme-3M > 100 µM | HOP-62 > 100 µM | RPMI-8226 27.9 µM | EKVX > 100 µM | CAKI-1 > 100 µM | SW-620 > 100 µM | HT-29 > 100 µM | NCI-H460 > 100 µM | KM12 > 100 µM | SF-268 > 100 µM | SK-MEL-5 > 100 µM | HOP-92 > 100 µM | SK-MEL-28 > 100 µM

CCc1ccccc1NC(=O)C1=C(C)NC(C)=C(C(=O)Nc2ccccc2CC)C1c1ccc(NC(C)=O)cc1
inactive: Malme-3M 49.1 µM | CCRF-CEM 18.7 µM | HOP-62 36.7 µM | RPMI-8226 17 µM | EKVX 60.7 µM | CAKI-1 43.1 µM | SW-620 41.2 µM | HT-29 37.7 µM | NCI-H460 30.5 µM | KM12 28.1 µM | SF-268 38.1 µM | SK-MEL-5 38.1 µM | HOP-92 25.8 µM | LOX IMVI 16.1 µM | SK-MEL-28 22.2 µM

OCC1C(/C=C/c2ccoc2)ON2CCCC12 (configuration not stated)
inactive: Malme-3M 20.8 µM | HOP-62 > 100 µM | EKVX > 100 µM | CAKI-1 > 100 µM | SW-620 > 100 µM | HT-29 > 100 µM | NCI-H460 > 100 µM | KM12 > 100 µM | SF-268 > 100 µM | LOX IMVI > 100 µM | SK-MEL-28 > 100 µM

Cc1cccc(C)c1NC(=O)C1C(=O)N(c2c(C)cccc2C)C(=O)/C1=N\NC(N)=S (configuration not stated)
inactive: Malme-3M > 100 µM | CCRF-CEM > 100 µM | HOP-62 > 100 µM | RPMI-8226 89.5 µM | EKVX > 100 µM | SW-620 > 100 µM | HT-29 > 100 µM | NCI-H460 > 100 µM | KM12 > 100 µM | SF-268 > 100 µM | UACC-62 > 100 µM | SK-MEL-5 > 100 µM | HOP-92 > 100 µM | SK-MEL-28 > 100 µM

CSC1=Nc2ccccc2N=C(c2ccccc2)C1
inactive: Malme-3M > 100 µM | CCRF-CEM 21 µM | HOP-62 > 100 µM | SR 24 µM | EKVX 54.8 µM | CAKI-1 75.2 µM | SW-620 15.1 µM | HT-29 46.7 µM | NCI-H460 19.1 µM | KM12 36 µM | SF-268 > 100 µM | UACC-62 > 100 µM | SK-MEL-5 44.5 µM | HOP-92 20.2 µM | LOX IMVI 17.2 µM | SK-MEL-28 > 100 µM

Cc1nc(Nc2ccc(Cl)cc2)sc1C(=O)NNC(=O)C(=O)NN
inactive: Malme-3M 21.9 µM | CCRF-CEM 22.2 µM | HOP-62 21.5 µM | SR 27.5 µM | EKVX 10.4 µM | CAKI-1 23.3 µM | SW-620 18 µM | HT-29 16.6 µM | NCI-H460 19.7 µM | KM12 18.3 µM | SF-268 27.8 µM | UACC-62 15.3 µM | SK-MEL-5 18.7 µM | HOP-92 19.9 µM | LOX IMVI 17.6 µM | SK-MEL-28 22.8 µM

Cc1c(C(=O)/C=C/c2ccc(N(C)C)cc2)c(=O)n(-c2ccccc2)n1C
inactive: Malme-3M > 100 µM | CCRF-CEM > 100 µM | EKVX > 100 µM | CAKI-1 > 100 µM | SW-620 > 100 µM | HT-29 > 100 µM | NCI-H460 > 100 µM | KM12 > 100 µM | SF-268 > 100 µM | UACC-62 > 100 µM | HOP-92 > 100 µM | LOX IMVI > 100 µM | SK-MEL-28 > 100 µM

O=[N+]([O-])c1cccc(C2N3CCCCC3[C@@H]3c4[nH]c5ccccc5c4CCN23)c1 (some centres not stated)
inactive: Malme-3M 2.55 µM | CCRF-CEM 13.2 µM | HOP-62 16.3 µM | RPMI-8226 10.9 µM | EKVX 23.1 µM | CAKI-1 28.4 µM | SW-620 20 µM | HT-29 6.82 µM | NCI-H460 16.4 µM | SF-268 12 µM | UACC-62 6.79 µM | SK-MEL-5 14.2 µM | HOP-92 16 µM | SK-MEL-28 16.3 µM

c1ccc(-c2nnc(-c3nn(-c4ccccc4)c4nc5ccccc5nc34)o2)cc1
inactive: Malme-3M 45.5 µM | CCRF-CEM 18.6 µM | HOP-62 > 100 µM | RPMI-8226 39.1 µM | EKVX > 100 µM | CAKI-1 > 100 µM | SW-620 92.3 µM | HT-29 > 100 µM | NCI-H460 > 10 µM | KM12 > 100 µM | SF-268 > 100 µM | UACC-62 69.2 µM | LOX IMVI > 100 µM | SK-MEL-28 > 100 µM

Nc1cc(C(=O)NC2C3CC4CC(C3)CC2C4)nc(S)n1 (configuration not stated)
inactive: Malme-3M > 100 µM | CCRF-CEM > 100 µM | HOP-62 > 100 µM | SR > 100 µM | EKVX > 100 µM | CAKI-1 > 100 µM | SW-620 > 100 µM | HT-29 > 100 µM | NCI-H460 > 100 µM | SF-268 > 100 µM | SK-MEL-5 > 100 µM | HOP-92 > 100 µM | SK-MEL-28 > 100 µM
